Source: patent US20190002429A1, “Derivatives of Xanthone Compounds” (Agency for Science, Technology and Research, priority 2011, published 2019)
Values after ≈ are worked out from the molar mass of the structure shown. Like-named read-outs stand apart in the source and are kept apart here.

Legend:
MRSA DM21455 [1] = assay: MIC against MRSA DM21455; assay type: cell-based, Staphylococcus aureus; conditions: for Minimum inhibition concentration (MIC): MRSA DM21455, Source: Eye; for MIC: Staphylococcus aureus
[2] = tested on: Clinical Staphylococcus aureus DM4001; assay: MIC against clinical S. aureus DM4001; assay type: cell-based; parameters: MIC: unit not given here; conditions: Clinical S. aureus DM4001, Source: Eye; for MIC: Table 5
[3] = tested on: Staphylococcus aureus ATCC29213; assay: MIC against S. aureus ATCC29213; assay type: cell-based; conditions: for MIC: Table 5
[4] = tested on: Bacillus cereus ATCC11778; assay: MIC against Bacillus cereus ATCC11778; assay type: cell-based; conditions: for MIC: Table 5
[5] = tested on: Mycobacterium tuberculosis
MRSA = assay: MIC99 against MRSA (Table 2-1); assay type: cell-based, Staphylococcus aureus
S. aureus = assay: MIC99 against S. aureus (Table 2-1); assay type: cell-based, Staphylococcus aureus
MRSA DM09808R = assay: MIC against MRSA DM09808R; assay type: cell-based, Staphylococcus aureus; conditions: for MIC: Staphylococcus aureus
[6] = tested on: Pseudomonas aeruginosa ATCC27853; assay: MIC against Pseudomonas aeruginosa ATCC27853; assay type: cell-based
[7] = tested on: Clinical Staphylococcus aureus DM4001; assay: Cytoplasmic membrane depolarization (DiSC3 dye); assay type: cell-based; conditions: DiSC3 fluorescence; AM-016 at 12.5 ug/mL
Procedure: Membrane potential-sensitive dye 3,3′-dipropylthiadicarbocyanine iodide (DiSC3) was used to determine the cytoplasmic membrane depolarization activity of AM-016. An overnight culture of clinical Staphylococcus aureus DM4001(source: Eye) was allowed to grow in Muller-Hinton broth (MHB) to OD620=0.3-0.4. Then, the bacteria was collected by centrifugation at 2800 r.p.m at 37° C. for 30 minutes and washed with 5 mM HEPES buffer at pH7. […] The cell suspension was then incubated with 0.1M KCl and 0.4 μM DiSC3 at 37° C. for 30 minutes. Dye uptake was monitored by fluorospectrometry (Photon Technology International (PTI) Photomultiplier Detection Systems, model 814) in a stirred cuvette until the fluorescence signal was stable. The desired concentration of AM-016 was added and the fluorescence was monitored at an excitation wavelength of 622 nm and at an emission wavelength of 670 nm. A blank with dye in the absence of bacteria with same concentration of AM-016 was used as a control.

Gram-positive bacteria = assay: Antimicrobial activity against Gram-positive bacteria (statement); assay type: cell-based; conditions: at 50 ug/ml
red blood cell [8] = tested on: red blood cell
S. aureus DM4001 = assay: SYTOX green membrane permeabilization assay, S. aureus; conditions: 10 μM; for SYTOX green staining of bacteria (fluorescence microscopy): FIG. 14; for Membrane permeabilization (SYTOX green fluorescence emission): fluorescence spectroscopy
Procedure: S. aureus DM4001 was harvested at early exponential phase and suspended in 40 mM PBS until OD620 of 0.09 was obtained. Then, the bacteria suspension was incubated with 3 μM of SYTOX Green in dark. The mixture was monitored in a stirring cuvette at an excitation wavelength of 504 nm and at an emission wavelength of 523 nm until the fluorescence was stable. Then, 10 μM of AM compounds were added and the changed of fluorescence emissions were monitored.

[9] = tested on: Mycobacterium tuberculosis; assay: microbe, parasite or virus in culture; conditions: read-out: MIC100
red blood cell [10] = assay: Hemolytic activity / in vitro toxicity (HC50); conditions: for HC50: Table 2-1, in vitro toxicity; for Hemolytic concentration, HC50: Table 10
MRSA DM21595 = assay: MIC against MRSA DM21595; assay type: cell-based, Staphylococcus aureus; conditions: Staphylococcus aureus
MRSA DR42412 = assay: MIC against MRSA DR42412; assay type: cell-based, Staphylococcus aureus; conditions: Staphylococcus aureus
[11] = tested on: Staphylococcus aureus ATCC 700699 (VISA); assay: MIC against S. aureus ATCC 700699 (MRSA-700699, VISA); assay type: cell-based; conditions: for MIC: Staphylococcus aureus
[12] = tested on: Enterococcus faecalis ATCC 51299 VRE; assay: MIC against Enterococcus faecalis ATCC 51299 VRE; assay type: cell-based; conditions: E. faecalis ATCC 51299 VRE; no unit in table (Example 10 MICs in μg/ml)
[13] = tested on: Enterococcus faecalis 11: DS6527 (VRE 208/11); assay: MIC against Enterococcus faecalis DS6527 (VRE 208/11); assay type: cell-based; conditions: E. faecalis DS6527 (VRE 208/11); no unit in table (Example 10 MICs in μg/ml)
[14] = tested on: Enterococcus faecalis 11: DU9345 VRE; assay: MIC against Enterococcus faecalis DU9345 VRE; assay type: cell-based; conditions: E. faecalis DU9345 VRE; no unit in table (Example 10 MICs in μg/ml)
[15] = tested on: Staphylococcus aureus 10: DB6506 (MRSA04/10) (VISA); assay: MIC against S. aureus DB6506 (VISA); assay type: cell-based; conditions: no unit in table (Example 10 MICs in μg/ml)
MRSA DM21455 [16] = assay: Drug resistance test, 20 serial passages; assay type: cell-based, Staphylococcus aureus; conditions: MRSA DM21455, FIG. 7
[17] = tested on: Klebsiella pneumoniae ATCC10031; assay: MIC against Klebsiella pneumoniae ATCC10031; assay type: cell-based
[18] = assay type: physicochemical; conditions: pH 7
Procedure: The solvent was added stepwise until the compound was dissolved completely. Then, the stock solution was diluted to series of diluents and the absorbance of each diluent was determined.

[19] = pH value in different media; assay type: physicochemical
Text: The pH values were obtained using an electronic pH meter.

COc1c(OCC(=O)O)cc2oc3cc(O)c(CC=C(C)C)c(O)c3c(=O)c2c1CC=C(C)C [AM-072]
Minimum inhibition concentration (MIC) (MRSA DM21455 [1]): 6.25 µg/mL (≈ 13.3 µM) | Minimum inhibition concentration (MIC) [2]: 6.25 µg/mL (≈ 13.3 µM) | MIC [2]: 13.34 | Minimum inhibition concentration (MIC) [3]: 6.25 µg/mL (≈ 13.3 µM) | MIC [3]: 13.34 µM (≈ 6.25 µg/mL) | Minimum inhibition concentration (MIC) [4]: 6.25 µg/mL (≈ 13.3 µM) | MIC [4]: 13.34 µM (≈ 6.25 µg/mL) | MIC100 [5]: 250 µM

COc1c(OCCCCBr)cc2oc3cc(OCCCCBr)c(CC=C(C)C)c(O)c3c(=O)c2c1CC=C(C)C [AM-005]
MIC99 MRSA (MRSA): >200 µg/mL | MIC99 S. aureus (S. aureus): >200 µg/mL | Minimum inhibition concentration (MIC) (MRSA DM21455 [1]): >50 µg/mL | Minimum inhibition concentration (MIC) (MRSA DM09808R; MRSA DM09808R, Source: Eye): >50 µg/mL | Minimum inhibition concentration (MIC) [3]: >50 µg/mL | Minimum inhibition concentration (MIC) [6]: >50 µg/mL | Cytoplasmic membrane depolarization [7]: does not depolarize the membrane | Activity against Gram-positive bacteria (Gram-positive bacteria): did not show activity | HC50 (red blood cell [8]): >200 µg/mL | SYTOX green staining of bacteria (fluorescence microscopy) (S. aureus DM4001): no significant staining | Membrane permeabilization (SYTOX green fluorescence emission) (S. aureus DM4001): not able to trigger the membrane permeabilization

CC[C@@H](CO)NCCN[C@@H](CC)CO [Ethambutol]
MIC [9]: 20 µM (≈ 4.09 µg/mL)

CC(C)=CCc1c(O)cc2oc3cc(O)c(O)c(CC=C(C)C)c3c(=O)c2c1O [AM-013, Gamma-mangostin, reference compound]
MIC100 [5]: 125 µM | MIC100 ([5]; value in brackets): 49.55 µg/mL

COc1c(O)cc2oc3cc(O)c(CC=C(C)C)c(O)c3c(=O)c2c1CC=C(C)C [AM-000, alpha-mangostin, reference compound]
MIC99 MRSA (MRSA): 1.56 µg/mL (≈ 3.8 µM) | MIC99 S. aureus (S. aureus): 1.56 µg/mL (≈ 3.8 µM) | HC50 (red blood cell [10]): 9 µg/mL | Hemolytic concentration, HC50 (red blood cell [10]): 6.5 µg/mL

COc1c(O)cc2oc3cc(OCC(=O)O)c(CC=C(C)C)c(O)c3c(=O)c2c1CC=C(C)C [AM-071]
Minimum inhibition concentration (MIC) (MRSA DM21455 [1]): 25 µg/mL (≈ 53.4 µM) | Minimum inhibition concentration (MIC) [2]: 25 µg/mL (≈ 53.4 µM) | MIC [2]: 53.36 | Minimum inhibition concentration (MIC) [3]: 12.5 µg/mL (≈ 26.7 µM) | MIC [3]: 26.68 µM (≈ 12.5 µg/mL) | Minimum inhibition concentration (MIC) [4]: 6.25 µg/mL (≈ 13.3 µM) | MIC [4]: 13.34 µM (≈ 6.25 µg/mL) | MIC100 [5]: 250 µM | Hemolytic concentration, HC50 (red blood cell [10]): 37.5 µg/mL

CN[C@H](CC(C)C)C(=O)N[C@H]1C(=O)N[C@@H](CC(N)=O)C(=O)N[C@H]2C(=O)N[C@H]3C(=O)N[C@H](C(=O)N[C@H](C(=O)O)c4cc(O)cc(O)c4-c4cc3ccc4O)[C@H](O)c3ccc(c(Cl)c3)Oc3cc2cc(c3O[C@@H]2O[C@H](CO)[C@@H](O)[C@H](O)[C@H]2O[C@H]2C[C@](C)(N)[C@H](O)[C@H](C)O2)Oc2ccc(cc2Cl)[C@H]1O [Vancomycin, reference compound]
MIC (MRSA DM21455 [1]; MRSA): 0.78 µg/mL (≈ 0.538 µM) | MIC (MRSA DM09808R; MRSA): 0.395 µg/mL (≈ 0.273 µM) | MIC (MRSA DM21595; MRSA): 0.78 µg/mL (≈ 0.538 µM) | MIC (MRSA DR42412; MRSA): 0.78 µg/mL (≈ 0.538 µM) | Minimum inhibitory concentration ([11]; S. aureus ATCC 700699 (VISA), no unit in table (Example 10 MICs in μg/ml)): 6.25 | MIC [11]: 6.25 µg/mL (≈ 4.31 µM) | Minimum inhibitory concentration [12]: 50 | Minimum inhibitory concentration [13]: Above 100 | Minimum inhibitory concentration [14]: 1.56 | Minimum inhibitory concentration [15]: 1.56 | Development of drug resistance (MRSA DM21455 [16]): develops drug resistance more quickly

CCN(CC)CCCCCCCCCCCCOc1cc2oc3cc(OCCCCCCCCCCCCN(CC)CC)c(OC)c(CC=C(C)C)c3c(=O)c2c(O)c1CC=C(C)C [AM-045]
SYTOX green staining of bacteria (fluorescence microscopy) (S. aureus DM4001): no significant staining | Membrane permeabilization (SYTOX green fluorescence emission) (S. aureus DM4001): not able to trigger the membrane permeabilization

COc1c(OCCCCN2CCOCC2)cc2oc3cc(OCCCCN4CCOCC4)c(CC=C(C)C)c(O)c3c(=O)c2c1CC=C(C)C [AM-009]
MIC99 MRSA (MRSA): >200 µg/mL | MIC99 S. aureus (S. aureus): >200 µg/mL | Minimum inhibition concentration (MIC) (MRSA DM21455 [1]): >25 µg/mL | Minimum inhibition concentration (MIC) [3]: >25 µg/mL | MIC100 [5]: 8 µM | MIC100 ([5]; value in brackets): 5.54 µg/mL | HC50 (red blood cell [10]): >200 µg/mL | Hemolytic concentration, HC50 (red blood cell [10]): >1000 µg/mL | SYTOX green staining of bacteria (fluorescence microscopy) (S. aureus DM4001): no significant staining | Membrane permeabilization (SYTOX green fluorescence emission) (S. aureus DM4001): not able to trigger the membrane permeabilization

CCN(CC)CCCCCCCCOc1cc2oc3cc(OCCCCCCCCN(CC)CC)c(OC)c(CC=C(C)C)c3c(=O)c2c(O)c1CC=C(C)C [AM-043]
Membrane permeabilization (SYTOX green fluorescence emission) (S. aureus DM4001): weaker membrane permeabilization effect

CCCCCCCCCC(=O)N[C@@H](Cc1c[nH]c2ccccc12)C(=O)N[C@H](CC(N)=O)C(=O)N[C@@H](CC(=O)O)C(=O)N[C@@H]1C(=O)NCC(=O)N[C@@H](CCCN)C(=O)N[C@@H](CC(=O)O)C(=O)N[C@H](C)C(=O)N[C@@H](CC(=O)O)C(=O)NCC(=O)N[C@H](CO)C(=O)N[C@@H]([C@H](C)CC(=O)O)C(=O)N[C@@H](CC(=O)c2ccccc2N)C(=O)O[C@@H]1C [Daptomycin, reference compound]
MIC (MRSA DM21455 [1]; MRSA-21455 (Eye), Example 10, Mueller Hinton broth dilution, read-out: MIC): 0.78 µg/mL (≈ 0.481 µM) | MIC (MRSA DM09808R; MRSA-09808R (Eye), Example 10, Mueller Hinton broth dilution, read-out: MIC): 0.195 µg/mL (≈ 0.12 µM) | MIC (MRSA DM21595; MRSA-21595 (Wound), Example 10, Mueller Hinton broth dilution, read-out: MIC): 0.395 µg/mL (≈ 0.244 µM) | MIC (MRSA DR42412; MRSA-42412 (Sputum), Example 10, Mueller Hinton broth dilution, read-out: MIC): 0.195 µg/mL (≈ 0.12 µM) | MIC ([11]; MRSA-700699, Example 10, Mueller Hinton broth dilution, read-out: MIC): 0.78 µg/mL (≈ 0.481 µM)

COC(=O)C(CCCNC(=N)N)NC(=O)COc1cc2oc3cc(OCC(=O)NC(CCCNC(=N)N)C(=O)OC)c(OC)c(CC=C(C)C)c3c(=O)c2c(O)c1CC=C(C)C (stereo not drawn) [AM-052]
MIC99 (MRSA DM21455 [1]; Methicillin-resistant S. aureus DM21455, Source: Eye): 1.56 µg/mL (≈ 1.8 µM) | MIC99 (MRSA DM09808R; Methicillin-resistant S. aureus DM09808R): 3.125 µg/mL (≈ 3.6 µM) | MIC99 [3]: 6.25 µg/mL (≈ 7.21 µM) | MIC99 [4]: 3.125 µg/mL (≈ 3.6 µM) | MIC99 [6]: 12.5 µg/mL (≈ 14.4 µM) | MIC99 [17]: 6.25 µg/mL (≈ 7.21 µM) | Solubility [18]: not soluble | pH ([19]; Saline, 50 μg/ml compound): 5.33 ± 0.05 | pH ([19]; Saline, 100 μg/ml compound): 5.33 ± 0.01 | pH ([19]; Water, 50 μg/ml compound): 6.52 ± 0.29 | pH ([19]; Water, 100 μg/ml compound): 7.66 ± 0.33 | HC50 (red blood cell [8]): 238 µg/mL

CCN(CC)CCCCCCCCCCOc1cc2oc3cc(OCCCCCCCCCCN(CC)CC)c(OC)c(CC=C(C)C)c3c(=O)c2c(O)c1CC=C(C)C [AM-044]
SYTOX green staining of bacteria (fluorescence microscopy) (S. aureus DM4001): no significant staining | Membrane permeabilization (SYTOX green fluorescence emission) (S. aureus DM4001): not able to trigger the membrane permeabilization
